Reference: ChEMBL document CHEMBL1201861, “Genomics of Drug Sensitity in Cancer screening data, Wellcome Trust Sanger Institute”

Tests used:
Assay in all cases: cells
M14 = type: functional, cell-based; conditions: Homo sapiens
Description: SANGER: Inhibition of human M14 cell growth in a cell viability assay.

GDM-1 = type: functional, cell-based, Homo sapiens; conditions: Homo sapiens, GDM-1; read-out: IC50
Description: SANGER: Inhibition of human GDM-1 cell growth in a cell viability assay.

TE-441-T = type: functional, cell-based, Homo sapiens; conditions: Homo sapiens, TE-441-T
Description: SANGER: Inhibition of human TE-441-T cell growth in a cell viability assay.

T47D = type: functional, cell-based; conditions: Homo sapiens
Description: SANGER: Inhibition of human T47D cell growth in a cell viability assay.

RPMI-7951 = type: functional, cell-based; conditions: Homo sapiens
Description: SANGER: Inhibition of human RPMI-7951 cell growth in a cell viability assay.

SAOS-2 = type: functional, cell-based; conditions: Homo sapiens
Description: SANGER: Inhibition of human Saos-2 cell growth in a cell viability assay.

SW1417 = type: functional, cell-based; conditions: Homo sapiens
Description: SANGER: Inhibition of human SW1417 cell growth in a cell viability assay.

NCI-H358 = type: functional, cell-based; conditions: Homo sapiens
Description: SANGER: Inhibition of human NCI-H358 cell growth in a cell viability assay.

NCI-H661 = type: functional, cell-based; conditions: Homo sapiens
Description: SANGER: Inhibition of human NCI-H661 cell growth in a cell viability assay.

HN = type: functional, cell-based; conditions: Homo sapiens
Description: SANGER: Inhibition of human HN cell growth in a cell viability assay.

LB647-SCLC = type: functional, cell-based, Homo sapiens; conditions: Homo sapiens, LB647-SCLC
Description: SANGER: Inhibition of human LB647-SCLC cell growth in a cell viability assay.

NCI-H630 = type: functional, cell-based; conditions: Homo sapiens
Description: SANGER: Inhibition of human NCI-H630 cell growth in a cell viability assay.

SW756 = type: functional, cell-based; conditions: Homo sapiens
Description: SANGER: Inhibition of human SW756 cell growth in a cell viability assay.

CAL-148 = type: functional, cell-based, Homo sapiens; conditions: Homo sapiens, CAL-148
Description: SANGER: Inhibition of human CAL-148 cell growth in a cell viability assay.

KYSE-270 = type: functional, cell-based; conditions: Homo sapiens
Description: SANGER: Inhibition of human KYSE-270 cell growth in a cell viability assay.

MRK-nu-1 = type: functional, cell-based, Homo sapiens; conditions: Homo sapiens, MRK-nu-1
Description: SANGER: Inhibition of human MRK-nu-1 cell growth in a cell viability assay.

NCI-H1882 = type: functional, cell-based, Homo sapiens; conditions: Homo sapiens, NCI-H1882
Description: SANGER: Inhibition of human NCI-H1882 cell growth in a cell viability assay.

SN12C = type: functional, cell-based; conditions: Homo sapiens
Description: SANGER: Inhibition of human SN12C cell growth in a cell viability assay.

CAL-27 = type: functional, cell-based; conditions: Homo sapiens
Description: SANGER: Inhibition of human CAL-27 cell growth in a cell viability assay.

ESS-1 = type: functional, cell-based; conditions: Homo sapiens
Description: SANGER: Inhibition of human ESS-1 cell growth in a cell viability assay.

MeWo = type: functional, cell-based; conditions: Homo sapiens
Description: SANGER: Inhibition of human Mewo cell growth in a cell viability assay.

SCC-3 = type: functional, cell-based, Homo sapiens; conditions: Homo sapiens, SCC-3
Description: SANGER: Inhibition of human SCC-3 cell growth in a cell viability assay.

KOSC-2 = type: functional, cell-based; conditions: Homo sapiens
Description: SANGER: Inhibition of human KOSC-2 cell growth in a cell viability assay.

D-542MG = type: functional, cell-based; conditions: Homo sapiens
Description: SANGER: Inhibition of human D-542MG cell growth in a cell viability assay.

PANC-08-13 = type: functional, cell-based; conditions: Homo sapiens
Description: SANGER: Inhibition of human PANC-08-13 cell growth in a cell viability assay.

SW13 = type: functional, cell-based; conditions: Homo sapiens
Description: SANGER: Inhibition of human SW13 cell growth in a cell viability assay.

BEN = type: functional, cell-based; conditions: Homo sapiens
Description: SANGER: Inhibition of human BEN cell growth in a cell viability assay.

ASPC1 = type: functional, cell-based; conditions: Homo sapiens
Description: SANGER: Inhibition of human AsPC-1 cell growth in a cell viability assay.

RVH-421 = type: functional, cell-based; conditions: Homo sapiens
Description: SANGER: Inhibition of human RVH-421 cell growth in a cell viability assay.

Calu-3 = type: functional, cell-based; conditions: Homo sapiens
Description: SANGER: Inhibition of human Calu-3 cell growth in a cell viability assay.

OVCAR-8 = type: functional, cell-based; conditions: Homo sapiens
Description: SANGER: Inhibition of human OVCAR-8 cell growth in a cell viability assay.

MKN-45 = type: functional, cell-based; conditions: Homo sapiens
Description: SANGER: Inhibition of human MKN45 cell growth in a cell viability assay.

BCPAP = type: functional, cell-based; conditions: Homo sapiens
Description: SANGER: Inhibition of human BCPAP cell growth in a cell viability assay.

SW1463 = type: functional, cell-based; conditions: Homo sapiens
Description: SANGER: Inhibition of human SW1463 cell growth in a cell viability assay.

SK-HEP1 = type: functional, cell-based, SK-HEP-1; conditions: Homo sapiens
Description: SANGER: Inhibition of human SK-HEP-1 cell growth in a cell viability assay.

SW837 = type: functional, cell-based; conditions: Homo sapiens
Description: SANGER: Inhibition of human SW837 cell growth in a cell viability assay.

REH = type: functional, cell-based, Homo sapiens; conditions: Homo sapiens, REH
Description: SANGER: Inhibition of human REH cell growth in a cell viability assay.

LU-165 = type: functional, cell-based, Homo sapiens; conditions: Homo sapiens, LU-165
Description: SANGER: Inhibition of human LU-165 cell growth in a cell viability assay.

NCI-H2052 = type: functional, cell-based; conditions: Homo sapiens
Description: SANGER: Inhibition of human NCI-H2052 cell growth in a cell viability assay.

UO-31 = type: functional, cell-based; conditions: Homo sapiens
Description: SANGER: Inhibition of human U031 cell growth in a cell viability assay.

HT1197 = type: functional, cell-based, HT-1197; conditions: Homo sapiens
Description: SANGER: Inhibition of human HT-1197 cell growth in a cell viability assay.

Daoy = type: functional, cell-based; conditions: Homo sapiens
Description: SANGER: Inhibition of human Daoy cell growth in a cell viability assay.

LN-405 = type: functional, cell-based; conditions: Homo sapiens
Description: SANGER: Inhibition of human LN-405 cell growth in a cell viability assay.

LCLC-103H cell line = type: functional, cell-based; conditions: Homo sapiens
Description: SANGER: Inhibition of human LCLC-103H cell growth in a cell viability assay.

CWR22R = type: functional, cell-based; conditions: Homo sapiens, 22Rv1
Description: SANGER: Inhibition of human 22RV1 cell growth in a cell viability assay.

CA46 = type: functional, cell-based, Homo sapiens; conditions: Homo sapiens, CA46
Description: SANGER: Inhibition of human CA46 cell growth in a cell viability assay.

SIMA = type: functional, cell-based, Homo sapiens; conditions: Homo sapiens, SIMA
Description: SANGER: Inhibition of human SIMA cell growth in a cell viability assay.

MEL-JUSO = type: functional, cell-based; conditions: Homo sapiens
Description: SANGER: Inhibition of human MEL-JUSO cell growth in a cell viability assay.

A673 = type: functional, cell-based; conditions: Homo sapiens
Description: SANGER: Inhibition of human A673 cell growth in a cell viability assay.

BC-3 = type: functional, cell-based, Homo sapiens; conditions: Homo sapiens, BC-3
Description: SANGER: Inhibition of human BC-3 cell growth in a cell viability assay.

NCI-H510A = type: functional, cell-based, Homo sapiens; conditions: Homo sapiens, NCI-H510A
Description: SANGER: Inhibition of human NCI-H510A cell growth in a cell viability assay.

ChaGo-K-1 = type: functional, cell-based; conditions: Homo sapiens
Description: SANGER: Inhibition of human ChaGo-K-1 cell growth in a cell viability assay.

MKN-7 = type: functional, cell-based; conditions: Homo sapiens
Description: SANGER: Inhibition of human MKN7 cell growth in a cell viability assay.

Daudi = type: functional, cell-based, Homo sapiens; conditions: Homo sapiens, Daudi
Description: SANGER: Inhibition of human Daudi cell growth in a cell viability assay.

HuP-T3 = type: functional, cell-based; conditions: Homo sapiens
Description: SANGER: Inhibition of human HuP-T3 cell growth in a cell viability assay.

8305C = type: functional, cell-based; conditions: Homo sapiens
Description: SANGER: Inhibition of human 8305C cell growth in a cell viability assay.

JEG-3 = type: functional, cell-based; conditions: Homo sapiens
Description: SANGER: Inhibition of human JEG-3 cell growth in a cell viability assay.

SIG-M5 = type: functional, cell-based, Homo sapiens; conditions: Homo sapiens, SIG-M5
Description: SANGER: Inhibition of human SIG-M5 cell growth in a cell viability assay.

## O=S(=O)(O)c1ccc2cc(/N=N/c3cc(S(=O)(=O)O)c4cccnc4c3O)ccc2c1
M14
  IC50: > 16000 nM
GDM-1
  IC50: > 16000 nM
TE-441-T
  IC50: > 16000 nM
T47D
  IC50: > 16000 nM
RPMI-7951
  IC50: > 16000 nM
SAOS-2
  IC50: > 16000 nM
SW1417
  IC50: > 16000 nM
NCI-H358
  IC50: > 16000 nM
NCI-H661
  IC50: > 16000 nM
HN
  IC50: > 16000 nM
LB647-SCLC
  IC50: > 16000 nM
NCI-H630
  IC50: > 16000 nM
SW756
  IC50: > 16000 nM
CAL-148
  IC50: > 16000 nM
KYSE-270
  IC50: > 16000 nM
MRK-nu-1
  IC50: > 16000 nM
NCI-H1882
  IC50: > 16000 nM
SN12C
  IC50: > 16000 nM
CAL-27
  IC50: > 16000 nM
ESS-1
  IC50: > 16000 nM
MeWo
  IC50: > 16000 nM
SCC-3
  IC50: > 16000 nM
KOSC-2
  IC50: > 16000 nM
D-542MG
  IC50: > 16000 nM
PANC-08-13
  IC50: > 16000 nM
SW13
  IC50: > 16000 nM
BEN
  IC50: > 16000 nM
ASPC1
  IC50: > 16000 nM
RVH-421
  IC50: > 16000 nM
Calu-3
  IC50: > 16000 nM
OVCAR-8
  IC50: > 16000 nM
MKN-45
  IC50: > 16000 nM
BCPAP
  IC50: > 16000 nM
SW1463
  IC50: > 16000 nM
SK-HEP1
  IC50: > 16000 nM
SW837
  IC50: > 16000 nM
REH
  IC50: > 16000 nM
LU-165
  IC50: > 16000 nM
NCI-H2052
  IC50: > 16000 nM
UO-31
  IC50: 13600 nM
HT1197
  IC50: > 16000 nM
Daoy
  IC50: > 16000 nM
LN-405
  IC50: > 16000 nM
LCLC-103H cell line
  IC50: > 16000 nM
CWR22R
  IC50: > 16000 nM
CA46
  IC50: > 16000 nM
SIMA
  IC50: > 16000 nM
MEL-JUSO
  IC50: > 16000 nM
A673
  IC50: > 16000 nM
BC-3
  IC50: > 16000 nM
NCI-H510A
  IC50: > 16000 nM
ChaGo-K-1
  IC50: > 16000 nM
MKN-7
  IC50: > 16000 nM
Daudi
  IC50: > 16000 nM
HuP-T3
  IC50: > 16000 nM
8305C
  IC50: > 16000 nM
JEG-3
  IC50: > 16000 nM
SIG-M5
  IC50: > 16000 nM

## Cc1ccc(C(=O)Nc2ccc(CN3CCN(C)CC3)c(C(F)(F)F)c2)cc1C#Cc1cnc2cccnn12 [PONATINIB]
M14
  IC50: > 512 nM
GDM-1
  IC50: 18.3 nM
TE-441-T
  IC50: > 512 nM
T47D
  IC50: > 512 nM
RPMI-7951
  IC50: > 512 nM
SAOS-2
  IC50: > 512 nM
SW1417
  IC50: > 512 nM
NCI-H358
  IC50: > 512 nM
NCI-H661
  IC50: > 512 nM
HN
  IC50: > 512 nM
LB647-SCLC
  IC50: > 512 nM
NCI-H630
  IC50: > 512 nM
SW756
  IC50: > 512 nM
CAL-148
  IC50: > 512 nM
KYSE-270
  IC50: > 512 nM
MRK-nu-1
  IC50: > 512 nM
NCI-H1882
  IC50: > 512 nM
SN12C
  IC50: > 512 nM
CAL-27
  IC50: > 512 nM
ESS-1
  IC50: 478 nM
MeWo
  IC50: > 512 nM
SCC-3
  IC50: > 512 nM
KOSC-2
  IC50: > 512 nM
D-542MG
  IC50: > 512 nM
PANC-08-13
  IC50: > 512 nM
SW13
  IC50: > 512 nM
BEN
  IC50: > 512 nM
ASPC1
  IC50: > 512 nM
RVH-421
  IC50: > 512 nM
Calu-3
  IC50: > 512 nM
OVCAR-8
  IC50: > 512 nM
MKN-45
  IC50: > 512 nM
BCPAP
  IC50: 360 nM
SW1463
  IC50: > 512 nM
SK-HEP1
  IC50: 334 nM
SW837
  IC50: > 512 nM
REH
  IC50: > 512 nM
LU-165
  IC50: > 512 nM
NCI-H2052
  IC50: 315 nM
UO-31
  IC50: > 512 nM
HT1197
  IC50: > 512 nM
Daoy
  IC50: > 512 nM
LN-405
  IC50: > 512 nM
LCLC-103H cell line
  IC50: > 512 nM
CWR22R
  IC50: > 512 nM
CA46
  IC50: 175 nM
SIMA
  IC50: > 512 nM
MEL-JUSO
  IC50: > 512 nM
A673
  IC50: > 512 nM
BC-3
  IC50: > 512 nM
NCI-H510A
  IC50: > 512 nM
ChaGo-K-1
  IC50: > 512 nM
MKN-7
  IC50: > 512 nM
Daudi
  IC50: 25.4 nM
HuP-T3
  IC50: > 512 nM
8305C
  IC50: 398 nM
JEG-3
  IC50: > 512 nM
SIG-M5
  IC50: 134 nM
